From paper PMC6342294, “Asymmetric diversification of mating pheromones in fission yeast” (PLoS Biology, 2019)

Assays:
Map3 = biological target: T1, Map3 (Schizosaccharomyces pombe, UniProt P31397); test: Shmooing assay of synthetic M-factor peptides on P cells lacking rgs1+ (TS405); assay type: cell-based, S. pombe; settings: EMM2−N
T1 construct: an M-factor-sensitive strain lacking the rgs1^+ gene [53]; endogenous in cells; host or cells: S. pombe heterothallic haploid P cells lacking rgs1+ (TS405)
T1 sequence (P31397 1-365): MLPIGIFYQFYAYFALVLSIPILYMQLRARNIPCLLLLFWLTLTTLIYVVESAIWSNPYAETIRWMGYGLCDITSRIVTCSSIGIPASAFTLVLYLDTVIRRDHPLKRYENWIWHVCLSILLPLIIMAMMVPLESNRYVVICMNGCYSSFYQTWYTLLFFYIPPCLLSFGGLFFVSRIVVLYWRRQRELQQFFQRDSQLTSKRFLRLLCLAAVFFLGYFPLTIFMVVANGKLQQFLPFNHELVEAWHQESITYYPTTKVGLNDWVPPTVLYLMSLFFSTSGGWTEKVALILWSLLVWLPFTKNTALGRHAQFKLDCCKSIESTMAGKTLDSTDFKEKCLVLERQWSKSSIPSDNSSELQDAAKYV
Procedure: Under these conditions, approximately 40% of cells treated with Sp-M-factor peptide underwent shmoo formation, whereas no cells treated with So-M-factor peptide underwent shmooing (S5B Fig). When the concentration of So-M-factor was raised to 1,000 nM, the cells underwent shmoo elongation a little (S5B Fig).
P-factor and M-factor peptides were chemically synthesized (Eurofins) for the shmooing assay. The purity of the preparations was over 95% (HPLC). P-factor was dissolved in dimethyl sulfoxide (DMSO) at a concentration of 500 μM, and M-factor was dissolved in methanol (MeOH) at a concentration of 1 mM. The stock solutions were diluted with culture medium to the appropriate dilution ratio. For the assay, heterothallic haploid cells were grown in YE medium overnight, washed with sterilized water three times, and then resuspended in EMM2−N medium at a cell density of 4 × 10^7 cells/ml. The cells were treated with the synthetic pheromone and incubated for exactly 24 hours with gentle shaking.
To assess whether Mam2 could recognize different P-factors, a P-factor sensitive strain lacking the sxa2^+ gene (TS402) was used. The cells were incubated with synthetic P-factors at different concentrations (0, 10, 100, and 1,000 nM) for 24 hours and observed by a DIC microscope. Images were recorded, and the L and W of a cell were measured to determine the L/W ratio. […] In all cases, at least 100 cells each were measured. […] The cells were treated with synthetic M-factors at different concentrations (0, 100, and 1,000 nM) for 24 hours, and analyzed, as described above.
Supplementary file pbio.3000101.s005.tif: S5 Fig Effects of mating pheromones of S. octosporus on S. pombe cells. […] The ability of each M-factor peptide to induce shmooing was assessed by the L/W ratio of a cell, as described in S3 Fig. (C) Comparison of the amino sequences of Sp-P-factors and So-P-factors. […] The shmooing assay was evaluated as described in S3 Fig. EMM2−N, Edinburgh Minimal Medium 2 lacking nitrogen; L, length; M, Minus; P, Plus; rgs, regulator of G-protein signaling; So, S. octosporus; Sp, S. pombe; W, width. […]

S. pombe cells = test: Quantitative assay of zygote formation (mating efficiency), S. pombe strains; assay type: cell-based; settings: peptide produced by engineered strain; mfm1 gene integrated in M-factorless strain FY23412; MEA, 2 days, 30 °C; mean ± SD of triplicate
Procedure: The resulting strains each produced one of the six P-factors. The mating efficiency of these strains was assessed by the frequency of zygotes. […] To determine whether the order of nucleotide sequences encoding mature P-factor affects zygote frequency, we also introduced a map2 gene carrying a permuted sequence of repeats (P2-P3-P2-P1) into the FY23418 strain. Similar to the strain with the native sequence, this strain also mated at high frequency (74.2% ± 1.7%) (Fig 2D); therefore, the effect of peptide-coding position appears small.
Next, we assessed whether the pheromone peptides of S. octosporus are effective on S. pombe cells. […] Next, we replaced the Sp-M-factor–encoding sequence in the mfm1^+ gene with the So-M-factor–encoding sequence (mfm1^So). […] In short, S. pombe P cells were unable to mate with M cells producing So-M-factor. […] We also replaced the So-P-factor–encoding sequence (7 repeats) in the So-map2^+ gene with the Sp-P-factor–encoding sequence (4 repeats) (So-map2^Sp) in S. octosporus cells. […]
Cells grown on YEA plates overnight were resuspended in sterilized water to a cell density of 1 × 10^8 cells/ml. […] The percentage of zygotes was calculated, as described previously. In all cases, triplicate samples (at least 300 cells each) were counted, and the mean and standard deviation (SD) were calculated.

[1] = TS405 P cells (rgs1Δ), 100 nM synthetic M-factor, one day

Row | Substance | Proportion of cells that underwent shmoo formation, 100 nM (Map3; [1]) | Mating efficiency (zygotes) of S. pombe strain producing only this M-factor (S. pombe cells) | Shmooing at 100 nM (in words) (Map3; [1]) | Shmoo elongation at 1,000 nM (in words) (Map3; TS405 P cells (rgs1Δ), 1,000 nM synthetic M-factor, 24 hours)
1 | YTPKVPYMC^Far-OCH3 [Sp-M-factor, S. pombe mature M-factor, farnesylated and methylated peptide of nine amino acids, reference compound] | approximately 40% | 72.1% ± 3.7% |  | 
2 | YQPKPPAMC^Far-OCH3 [So-M-factor, putative M-factor of S. octosporus, farnesylated methylated nonapeptide] |  | completely sterile | no cells | a little
